From ChEMBL document CHEMBL1649553, “Characterization of ermA in macrolide-susceptible strains of methicillin-resistant Staphylococcus aureus” (2009)
In brackets after ≈: the same amount, converted by molar mass.

Test system: Staphylococcus aureus
Assay: Antibacterial activity against methicillin-resistant Staphylococcus aureus
Format: functional

Structure (SMILES)	MIC
CCC[C@@H]1C[C@@H](C(=O)N[C@@H]([C@H]2O[C@H](SC)[C@H](O)[C@@H](O)[C@H]2O)[C@H](C)Cl)N(C)C1 [CLINDAMYCIN]	0.5 µg/mL (≈ 1.18 µM)
CC[C@H]1OC(=O)[C@H](C)[C@@H](O[C@H]2C[C@@](C)(OC)[C@@H](O)[C@H](C)O2)[C@H](C)[C@@H](O[C@@H]2O[C@H](C)C[C@H](N(C)C)[C@H]2O)[C@](C)(O)C[C@@H](C)C(=O)[C@H](C)[C@@H](O)[C@]1(C)O [ERYTHROMYCIN]	0.25 µg/mL (≈ 0.341 µM)
